From US20230120044A1, “AGROCHEMICAL ADJUVANTS” (Croda International Plc, priority 2020, published 2023)

Assays:
[1] = test system: Botrytis cinerea (ATCC 90479); test: Adjuvancy with pyraclostrobin, agar growth inhibition of hyphal inoculum; assay type: cell-based; conditions: for Fold Change in Growth Inhibition: vs pyraclostrobin alone, 48 hours, 22° C.
Description: Percent Inhibition—The percent inhibition will be understood to represent the amount the fungicide and/or adjuvant inhibits the visible growth of the microorganism after 48 hours incubation at 22° C. relative to vehicle treated controls. This is calculated using the following formula: […]
Fold Change—The fold change is a measure of the adjuvant/fungicide combination in inhibiting a microorganism compared to the fungicide alone. This indicates how the adjuvant performs relative to the fungicide alone. This is calculated using the following formula: […]
Botrytis cinerea (ATCC 90479) was cultured on potato dextrose agar (PDA) for 7 days with diurnal UV cycles (12 h UV light and 12 h dark). Spores were harvested in a buffered, sterile saline solution (0.9% saline water with 1% Tween 80) and counted using a haemocytometer. The spore suspension was adjusted to a final concentration of 8.5×10^6 spores/mL to create a standardised inoculum.
To prepare hyphal fragments for adjuvant testing, 8.5×10^4 spores were used to inoculate 10 mL of potato dextrose broth in a 150×25 mm tube. The tube was incubated at 220 RPM, 22° C. for 48 hours. To create hyphal fragments from the culture, the culture was transferred to a 50 mL plastic conical tube containing approximately 20 sterile 5 mm diameter glass beads and vortexed for 5 min. After vortexing the tube was allowed to stand for 5 min to allow large mycelial clumps to settle and then the top layer containing hyphal fragments was removed and used as inocula for growth inhibition assays.
Fungicides and adjuvants were dissolved in methanol and added to molten PDA (˜50° C.) and then the agar was distributed in the wells of 12 well multiwell plates (1 mL/well). The plates were cooled to room temperature and 10 μL of hyphal inoculum was added to the centre of each well. The plates were incubated at 22° C. for 48 hours and then the colony diameter was measured using a digital caliper. The biological growth control consisted of hyphae and vehicle (0.07% methanol), the negative control was media and vehicle (0.07% methanol).

Cladosporium sp. = test: Adjuvancy with other fungicides for other fungus, FT6; assay type: cell-based; conditions: Ia 4 μg/mL + pyrimethanil 0.006 μg/mL
Description: (§1) To evaluate the biological spectrum of activity, lamellicolic anhydride adjuvant (Ta) was tested in combination with seven fungicides against six different fungal test organisms belonging to five different genera.
(§2) Prior to evaluating the adjuvant effect of (Ia), the minimum inhibitory concentration (MIC) for each fungicide against each test organism was determined by measuring growth on agar plates containing decreasing concentrations of fungicide.
(§3) Once the MIC was determined, adjuvant testing was performed with the concentration of (Ta) fixed at 4 μg/mL and each fungicide at a concentration which inhibited growth of the fungus by 10-20%.
(§4) Fungal targets are: FT1 —Fusarium solani, FT2 —Fusarium oxysporum, FT3 —Alternaria infectorium, FT4 —Penicillium roqueforti, FT5 —Aspergillus flavus, FT6 —Cladosporium sp.
(§5) The numbers indicate fold change improvement in fungal growth inhibition relative to the fungal test organisms treated with fungicide and adjuvant vehicle alone. A value of 1 would indicate no effect on fungicidal activity, whilst a value >1 indicates improved fungicidal activity. n.t. indicates not tested.

Aspergillus flavus = test: Adjuvancy with other fungicides for other fungus, FT5; assay type: cell-based
Description: as §1, §2, §3, §4, §5

Fusarium oxysporum = test: Adjuvancy with other fungicides for other fungus, FT2; assay type: cell-based; conditions: Ia 4 μg/mL + pyraclostrobin 0.01 μg/mL
Description: as §1, §2, §3, §4, §5

Alternaria infectorium = test: Adjuvancy with other fungicides for other fungus, FT3; assay type: cell-based
Description: as §1, §2, §3, §4, §5

Fusarium solani = test: Adjuvancy with other fungicides for other fungus, FT1; assay type: cell-based; conditions: Ia 4 μg/mL + dimethomorph 12.8 μg/mL
Description: as §1, §2, §3, §4, §5

B. cinerea = test: Adjuvancy with other fungicides for B. cinerea; assay type: cell-based, Botrytis cinerea
Description: Botrytis cinerea (ATCC 90479) was cultured on potato dextrose agar (PDA) for 7 days with diurnal UV cycles (12 h UV light and 12 h dark). Spores were harvested in a buffered, sterile saline solution (0.9% saline water with 1% Tween 80) and counted using a haemocytometer. The spore suspension was adjusted to a final concentration of 8.5×10^6 spores/mL to create a standardised inoculum. To prepare hyphal fragments for adjuvant testing, 8.5×10^4 spores were used to inoculate 10 mL of potato dextrose broth in a 150×25 mm tube. The tube was incubated at 220 RPM, 22° C. for 48 hours. To create hyphal fragments from the culture, the culture was transferred to a 50 mL plastic conical tube containing approximately 20 sterile 5 mm diameter glass beads and vortexed for 5 min. After vortexing the tube was allowed to stand for 5 min to allow large mycelial clumps to settle and then the top layer containing hyphal fragments was removed and used as inocula for growth inhibition assays. Fungicides and adjuvants were dissolved in methanol and added to molten PDA (˜50° C.) and then the agar was distributed in the wells of 12 well multiwell plates (1 mL/well). The plates were cooled to room temperature and 10 μL of hyphal inoculum was added to the centre of each well. The plates were incubated at 22° C. for 48 hours and then the colony diameter was measured using a digital caliper. The biological growth control consisted of hyphae and vehicle (0.07% methanol), the negative control was media and vehicle (0.07% methanol). To expand the functional characterisation of the lamellicolic anhydride adjuvant (Ia) was tested in combination with seven fungicides belonging to six different fungicide groups as classified by the Fungicide Resistance Action Committee (FRAC Code List 2018). Numbers indicate fold change improvement in fungal growth inhibition relative to the fungal test organisms treated with fungicide and adjuvant vehicle alone. n.t. indicates not tested.

Penicillium roqueforti = test: Adjuvancy with other fungicides for other fungus, FT4; assay type: cell-based
Description: as §1, §2, §3, §4, §5

[2] = Ia 4 μg/mL + iprodione 0.0015 μg/mL
[3] = Ia 4 μg/mL + mancozeb 0.2 μg/mL
[4] = Ia 4 μg/mL + pyraclostrobin 0.001 μg/mL

C/C=C/[C@@H]1[C@H]2C[C@@H](C)CC[C@@H]2C(C)=C[C@H]1C(=O)c1c(O)c(-c2ccc(O)cc2)c[nH]c1=O [Ilicicolin H (A), ilicicolin H]
Fold Change in Growth Inhibition ([1]; adjuvant 1.56 μg/mL + pyraclostrobin 0.1 μg/mL): 3.32 | Fold Change in Growth Inhibition ([1]; adjuvant 1.56 μg/mL + pyraclostrobin 0.2 μg/mL): 1.93 | Fold Change in Growth Inhibition ([1]; adjuvant 1.56 μg/mL + pyraclostrobin 0.4 μg/mL): 1.36 | Fold Change in Growth Inhibition ([1]; adjuvant 1.56 μg/mL + pyraclostrobin 0.8 μg/mL): 1.04 | Fold Change in Growth Inhibition ([1]; adjuvant 3.13 μg/mL + pyraclostrobin 0.1 μg/mL): 3.51 | Fold Change in Growth Inhibition ([1]; adjuvant 3.13 μg/mL + pyraclostrobin 0.2 μg/mL): 2.43 | Fold Change in Growth Inhibition ([1]; adjuvant 3.13 μg/mL + pyraclostrobin 0.4 μg/mL): 1.35 | Fold Change in Growth Inhibition ([1]; adjuvant 3.13 μg/mL + pyraclostrobin 0.8 μg/mL): 1.21 | Fold Change in Growth Inhibition ([1]; adjuvant 6.25 μg/mL + pyraclostrobin 0.1 μg/mL): 3.62 | Fold Change in Growth Inhibition ([1]; adjuvant 6.25 μg/mL + pyraclostrobin 0.2 μg/mL): 1.88 | Fold Change in Growth Inhibition ([1]; adjuvant 6.25 μg/mL + pyraclostrobin 0.4 μg/mL): 1.26 | Fold Change in Growth Inhibition ([1]; adjuvant 6.25 μg/mL + pyraclostrobin 0.8 μg/mL): 0.96 | inherent fungicidal activity on their own ([1]; adjuvant alone, at any of the concentrations tested): did not demonstrate any inherent fungicidal activity

Cc1cc(O)c2c3c(c(O)cc(O)c13)C(=O)OC2=O [Lam 261 (Ia), Lamellicolic anhydride]
fold change improvement in fungal growth inhibition (Cladosporium sp.): 1.67 | fold change improvement in fungal growth inhibition (Aspergillus flavus; Ia 4 μg/mL + dimethomorph 12.8 μg/mL): 1.27 | fold change improvement in fungal growth inhibition (Aspergillus flavus; [2]): 1.72 | fold change improvement in fungal growth inhibition (Aspergillus flavus; [3]): 2.01 | fold change improvement in fungal growth inhibition (Aspergillus flavus; Ia 4 μg/mL + prothioconazole 0.012 μg/mL): 1.28 | fold change improvement in fungal growth inhibition (Fusarium oxysporum): 1.63 | fold change improvement in fungal growth inhibition (Alternaria infectorium; Ia 4 μg/mL + dimethomorph 0.2 μg/mL): 1.25 | fold change improvement in fungal growth inhibition (Alternaria infectorium; Ia 4 μg/mL + mancozeb 0.1 μg/mL): 2.45 | fold change improvement in fungal growth inhibition (Alternaria infectorium; Ia 4 μg/mL + prothioconazole 0.006 μg/mL): 1.50 | fold change improvement in fungal growth inhibition (Alternaria infectorium; [4]): 1.18 | fold change improvement in fungal growth inhibition (Fusarium solani): 1.63 | Fold Change in Growth Inhibition (B. cinerea; Lam 261 (Ia) 1 μg/mL + benomyl 0.0015 μg/mL): 16.45 | Fold Change in Growth Inhibition (B. cinerea; Lam 261 (Ia) 1 μg/mL + captan 0.008 μg/mL): 17.25 | Fold Change in Growth Inhibition (B. cinerea; Lam 261 (Ia) 1 μg/mL + captan 0.04 μg/mL): 27.32 | Fold Change in Growth Inhibition (B. cinerea; Lam 261 (Ia) 1 μg/mL + dimethomorph 0.8 μg/mL): 17.72 | Fold Change in Growth Inhibition (B. cinerea; Lam 261 (Ia) 1 μg/mL + mancozeb 0.1 μg/mL): 1.89 | Fold Change in Growth Inhibition (B. cinerea; Lam 261 (Ia) 1 μg/mL + mancozeb 0.2 μg/mL): 2.44 | Fold Change in Growth Inhibition (B. cinerea; Lam 261 (Ia) 1 μg/mL + metalaxyl 0.8 μg/mL): 31.72 | Fold Change in Growth Inhibition (B. cinerea; Lam 261 (Ia) 1 μg/mL + metalaxyl 1.6 μg/mL): 27.22 | Fold Change in Growth Inhibition (B. cinerea; Lam 261 (Ia) 1 μg/mL + prothioconazole 1.0 μg/mL): 5.53 | Fold Change in Growth Inhibition (B. cinerea; Lam 261 (Ia) 1 μg/mL + tebuconazole 0.00018 μg/mL): 15.13 | Fold Change in Growth Inhibition (B. cinerea; Lam 261 (Ia) 1 μg/mL + tebuconazole 0.00075 μg/mL): 9.37 | Fold Change in Growth Inhibition (B. cinerea; Lam 261 (Ia) 1 μg/mL, benomyl 0 μg/mL (adjuvant alone)): 1.00 | Fold Change in Growth Inhibition (B. cinerea; Lam 261 (Ia) 1 μg/mL, captan 0 μg/mL (adjuvant alone)): 1.00 | Fold Change in Growth Inhibition (B. cinerea; Lam 261 (Ia) 1 μg/mL, dimethomorph 0 μg/mL (adjuvant alone)): 1.00 | Fold Change in Growth Inhibition (B. cinerea; Lam 261 (Ia) 1 μg/mL, mancozeb 0 μg/mL (adjuvant alone)): 1.00 | Fold Change in Growth Inhibition (B. cinerea; Lam 261 (Ia) 1 μg/mL, metalaxyl 0 μg/mL (adjuvant alone)): 1.00 | Fold Change in Growth Inhibition (B. cinerea; Lam 261 (Ia) 1 μg/mL, prothioconazole 0 μg/mL (adjuvant alone)): 1.00 | Fold Change in Growth Inhibition (B. cinerea; Lam 261 (Ia) 1 μg/mL, tebuconazole 0 μg/mL (adjuvant alone)): 1.00 | Fold Change in Growth Inhibition (B. cinerea; Lam 261 (Ia) 2 μg/mL + benomyl 0.0015 μg/mL): 20.43 | Fold Change in Growth Inhibition (B. cinerea; Lam 261 (Ia) 2 μg/mL + captan 0.008 μg/mL): 32.35 | Fold Change in Growth Inhibition (B. cinerea; Lam 261 (Ia) 2 μg/mL + captan 0.04 μg/mL): 30.95 | Fold Change in Growth Inhibition (B. cinerea; Lam 261 (Ia) 2 μg/mL + dimethomorph 0.4 μg/mL): 31.0 | Fold Change in Growth Inhibition (B. cinerea; Lam 261 (Ia) 2 μg/mL + dimethomorph 0.8 μg/mL): 16.06 | Fold Change in Growth Inhibition (B. cinerea; Lam 261 (Ia) 2 μg/mL + mancozeb 0.1 μg/mL): 3.06 | Fold Change in Growth Inhibition (B. cinerea; Lam 261 (Ia) 2 μg/mL + mancozeb 0.2 μg/mL): 2.83 | Fold Change in Growth Inhibition (B. cinerea; Lam 261 (Ia) 2 μg/mL + metalaxyl 0.8 μg/mL): 45.13 | Fold Change in Growth Inhibition (B. cinerea; Lam 261 (Ia) 2 μg/mL + metalaxyl 1.6 μg/mL): 32.46 | Fold Change in Growth Inhibition (B. cinerea; Lam 261 (Ia) 2 μg/mL + prothioconazole 1.0 μg/mL): 26.91 | Fold Change in Growth Inhibition (B. cinerea; Lam 261 (Ia) 2 μg/mL + tebuconazole 0.00018 μg/mL): 21.61 | Fold Change in Growth Inhibition (B. cinerea; Lam 261 (Ia) 2 μg/mL + tebuconazole 0.00075 μg/mL): 9.79 | Fold Change in Growth Inhibition (B. cinerea; Lam 261 (Ia) 2 μg/mL, benomyl 0 μg/mL (adjuvant alone)): 1.00 | Fold Change in Growth Inhibition (B. cinerea; Lam 261 (Ia) 2 μg/mL, captan 0 μg/mL (adjuvant alone)): 1.00 | Fold Change in Growth Inhibition (B. cinerea; Lam 261 (Ia) 2 μg/mL, dimethomorph 0 μg/mL (adjuvant alone)): 1.00 | Fold Change in Growth Inhibition (B. cinerea; Lam 261 (Ia) 2 μg/mL, mancozeb 0 μg/mL (adjuvant alone)): 1.00 | Fold Change in Growth Inhibition (B. cinerea; Lam 261 (Ia) 2 μg/mL, metalaxyl 0 μg/mL (adjuvant alone)): 1.00 | Fold Change in Growth Inhibition (B. cinerea; Lam 261 (Ia) 2 μg/mL, prothioconazole 0 μg/mL (adjuvant alone)): 1.00 | Fold Change in Growth Inhibition (B. cinerea; Lam 261 (Ia) 2 μg/mL, tebuconazole 0 μg/mL (adjuvant alone)): 1.00 | fold change improvement in fungal growth inhibition (Penicillium roqueforti; Ia 4 μg/mL + captan 0.04 μg/mL): 1.17 | fold change improvement in fungal growth inhibition (Penicillium roqueforti; Ia 4 μg/mL + dimethomorph 0.8 μg/mL): 1.85 | fold change improvement in fungal growth inhibition (Penicillium roqueforti; [2]): 1.65 | fold change improvement in fungal growth inhibition (Penicillium roqueforti; [3]): 1.63 | fold change improvement in fungal growth inhibition (Penicillium roqueforti; Ia 4 μg/mL + prothioconazole 0.00375 μg/mL): 1.52 | fold change improvement in fungal growth inhibition (Penicillium roqueforti; [4]): 1.27 | fold change improvement in fungal growth inhibition (Penicillium roqueforti; Ia 4 μg/mL + pyrimethanil 0.02 μg/mL): 1.31
